These results are taken from patent publication US8344003B2, “2-pyridinecarboxamide derivatives” (MSD K. K., priority 2003, dated 2013).

For the assay, the target named is T1, recombinant human liver GK (Homo sapiens, UniProt P35557).
T1 construct: made in house; host or cells: E. coli
T1 sequence (P35557 1-466 isoform P35557-2): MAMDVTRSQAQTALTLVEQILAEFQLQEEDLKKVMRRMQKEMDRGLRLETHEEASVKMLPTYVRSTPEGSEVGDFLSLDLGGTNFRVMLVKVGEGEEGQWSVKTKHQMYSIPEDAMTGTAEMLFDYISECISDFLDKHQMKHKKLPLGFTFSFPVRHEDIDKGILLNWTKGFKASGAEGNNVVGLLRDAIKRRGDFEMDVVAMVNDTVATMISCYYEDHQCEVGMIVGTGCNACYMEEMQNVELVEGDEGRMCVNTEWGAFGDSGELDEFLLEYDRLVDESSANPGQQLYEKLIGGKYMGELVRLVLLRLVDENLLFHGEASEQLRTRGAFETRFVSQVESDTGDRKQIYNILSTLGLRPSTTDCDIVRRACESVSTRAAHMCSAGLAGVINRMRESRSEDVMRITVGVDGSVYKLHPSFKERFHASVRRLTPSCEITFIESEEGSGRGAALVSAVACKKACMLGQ
Put plainly: glucokinase (GK) activation assay, Thio-NADH generation via reporter enzyme G6PDH, absorbance at 405 nm. The assay is classed as biochemical. Conditions: final glucose concentration 2.5 mM, 30° C.; for EC50: GK activation; for Emax: OD value of DMSO control regarded as 100%. The protocol: The glucokinase activity can be determined without directly measuring glucose-6-phosphate by measuring the amount of Thio-NADH generated during the production of phosphogluconolactone from glucose-6-phosphate by a reporter enzyme glucose-6-phosphate dehydrogenase. Thus, the degree of the glucokinase activity can be determined.
The recombinant human liver GK used in this assay expressed as a FLAG fusion protein in E. coli, was purified on […] M2 AFFINITY GEL (Sigma).
Assay was carried out at 30° C. in a 96-well plate. In the plate was distributed 69 μl each of assay buffer (25 mM Hepes Buffer: pH=7.2, 2 mM MgCl2, 1 mM ATP, 0.5 mM TNAD, 1 mM dithiothreitol), to which was added 1 μl of a DMSO solution of the compound or DMSO as control. Then, 20 μl of pre-ice-cooled enzyme mixture (FLAG-GK, 20 U/ml G6PDH) was distributed thereto, to which was added 10 μl of 25 mM glucose as substrate to initiate the reaction (final glucose concentration=2.5 mM).
FLAG-GK was added so that the increase of absorbance after 5 minutes fell between 0.05 to 0.1 in the presence of 1% DMSO.
The OD values of the respective compounds to be evaluated were measured in the respective concentrations, wherein the OD value of DMSO as control was regarded as 100%. From the OD values at the respective concentrations, Emax (%) and EC50 (μM) were calculated and used as indicators of the GK activation capability of the compounds. According to the above assay, the GK activation capability of the compounds in the present invention was determined.

Consider `COc1ccc(Sc2ccc(Sc3nnc[nH]3)nc2C(=O)Nc2nccs2)cc1` [Production Example 1], for which the EC50 (in general, the concentration needed to bring the measured effect to its halfway point) was found to be 50 nM and the maximum response (Emax) – broadly, the greatest response seen or fitted, relative to the assay's reference – stood at 997%.

`Cc1ccc(Sc2ccc(Sc3nnc[nH]3)nc2C(=O)Nc2nccs2)cn1` [Production Example 30, 3-(6-methyl-pyridine-3-yl-sulfanyl)-6-(4H-[1,2,4]triazole-3-yl-sulfanyl)-N-(thiazole-2-yl)-2-pyridine carboxamide]: the 50% effective concentration (EC50) was found to be 120 nM and the maximal response (Emax) amounted to 818%.
